Test results reported in ChEMBL document CHEMBL4602694, “Suppression of Drug-Resistant Non-Small-Cell Lung Cancer with Inhibitors Targeting Minichromosomal Maintenance Protein” (J Med Chem, 2020).
Active and inactive are the calls of the source. The calls are words filed in the database; no cut-off is given here.

Tests used:
[1] = system: NCI-H1975; assay: Antitumor activity against human NCI-H1975 cells xenografted in athymic nude BALB/c mouse assessed as tumor growth inhibition at 1 mg/kg, ip administered for 4 weeks relative to control; assay type: functional; details: 672 h, read-out: TGI
[2] = molecular target: T1, DNA replication licensing factor MCM4 (Homo sapiens) (UniProt P33991); assay: Induction of ubiquitination of MCM4 in human NCI-H1975 cells incubated for 24 hrs by immunoblot analysis (reference value: 1); assay type: cell-based
T1 sequence (whole entry): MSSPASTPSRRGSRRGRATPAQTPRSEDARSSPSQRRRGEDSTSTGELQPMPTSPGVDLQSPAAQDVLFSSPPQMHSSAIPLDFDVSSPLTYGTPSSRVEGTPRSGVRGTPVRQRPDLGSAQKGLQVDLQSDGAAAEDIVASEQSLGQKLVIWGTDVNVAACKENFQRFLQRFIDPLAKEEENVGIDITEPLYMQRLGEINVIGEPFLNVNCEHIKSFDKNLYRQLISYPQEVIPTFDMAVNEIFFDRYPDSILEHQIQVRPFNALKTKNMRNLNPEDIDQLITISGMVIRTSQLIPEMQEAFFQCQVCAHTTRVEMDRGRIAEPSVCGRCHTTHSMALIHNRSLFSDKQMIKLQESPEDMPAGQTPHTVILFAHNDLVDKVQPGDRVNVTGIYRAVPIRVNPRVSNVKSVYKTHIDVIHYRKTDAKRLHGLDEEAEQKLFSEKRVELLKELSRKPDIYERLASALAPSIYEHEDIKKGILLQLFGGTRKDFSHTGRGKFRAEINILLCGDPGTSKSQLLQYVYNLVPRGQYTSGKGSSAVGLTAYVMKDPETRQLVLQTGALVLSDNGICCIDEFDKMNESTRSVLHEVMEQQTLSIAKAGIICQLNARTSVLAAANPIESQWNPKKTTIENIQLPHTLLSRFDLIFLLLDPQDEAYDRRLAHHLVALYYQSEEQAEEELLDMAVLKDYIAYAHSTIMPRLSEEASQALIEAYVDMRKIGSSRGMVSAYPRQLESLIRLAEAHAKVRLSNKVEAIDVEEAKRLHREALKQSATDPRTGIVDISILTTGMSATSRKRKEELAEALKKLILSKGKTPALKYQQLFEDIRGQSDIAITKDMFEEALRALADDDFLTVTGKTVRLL

[3] = molecular target: DNA replication licensing factor MCM7 (Homo sapiens) (UniProt P33993); assay: Induction of ubiquitination of MCM7 in human H3255 cells incubated for 24 hrs by immunoblot analysis; assay type: cell-based; details: NCI-H3255
Chain of DNA replication licensing factor MCM7 (Homo sapiens) (P33993 whole entry): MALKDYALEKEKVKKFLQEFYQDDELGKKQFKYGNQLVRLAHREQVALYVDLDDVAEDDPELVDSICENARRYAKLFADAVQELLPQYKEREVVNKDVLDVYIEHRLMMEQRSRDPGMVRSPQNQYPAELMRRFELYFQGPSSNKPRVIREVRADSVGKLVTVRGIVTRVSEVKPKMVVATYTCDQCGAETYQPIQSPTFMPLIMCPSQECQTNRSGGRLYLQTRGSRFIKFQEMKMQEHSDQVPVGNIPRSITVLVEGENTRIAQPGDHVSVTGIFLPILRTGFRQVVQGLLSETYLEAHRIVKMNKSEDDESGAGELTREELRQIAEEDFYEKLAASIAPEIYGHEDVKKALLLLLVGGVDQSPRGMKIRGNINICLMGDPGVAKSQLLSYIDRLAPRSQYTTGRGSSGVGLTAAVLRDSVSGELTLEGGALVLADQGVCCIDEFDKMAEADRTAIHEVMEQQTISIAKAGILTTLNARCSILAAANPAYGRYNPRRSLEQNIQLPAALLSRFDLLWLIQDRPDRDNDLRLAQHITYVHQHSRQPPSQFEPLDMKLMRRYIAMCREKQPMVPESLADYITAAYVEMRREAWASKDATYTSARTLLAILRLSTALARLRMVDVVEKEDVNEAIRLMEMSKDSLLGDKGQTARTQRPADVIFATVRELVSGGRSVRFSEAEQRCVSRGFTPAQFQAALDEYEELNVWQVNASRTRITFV

[4] = system: NCI-H1975; assay: Antiproliferative activity against human NCI-H1975 cells knock out SiRNA MCM2 assessed as reduction in cell viability incubated for 72 hrs by SRB assay relative to control; assay type: functional
[5] = molecular target: DNA replication licensing factor MCM7 (Homo sapiens) (UniProt P33993); assay: Induction of ubiquitination of MCM7 in human NCI-H1975 cells incubated for 72 hrs by immunoblot analysis (reference value: 1); assay type: cell-based
[6] = molecular target: T2, DNA replication licensing factor MCM5 (Homo sapiens) (UniProt P33992); assay: Induction of ubiquitination of MCM5 in human NCI-H1975 cells incubated for 24 hrs by immunoblot analysis (reference value: 1); assay type: cell-based
T2 sequence (whole entry): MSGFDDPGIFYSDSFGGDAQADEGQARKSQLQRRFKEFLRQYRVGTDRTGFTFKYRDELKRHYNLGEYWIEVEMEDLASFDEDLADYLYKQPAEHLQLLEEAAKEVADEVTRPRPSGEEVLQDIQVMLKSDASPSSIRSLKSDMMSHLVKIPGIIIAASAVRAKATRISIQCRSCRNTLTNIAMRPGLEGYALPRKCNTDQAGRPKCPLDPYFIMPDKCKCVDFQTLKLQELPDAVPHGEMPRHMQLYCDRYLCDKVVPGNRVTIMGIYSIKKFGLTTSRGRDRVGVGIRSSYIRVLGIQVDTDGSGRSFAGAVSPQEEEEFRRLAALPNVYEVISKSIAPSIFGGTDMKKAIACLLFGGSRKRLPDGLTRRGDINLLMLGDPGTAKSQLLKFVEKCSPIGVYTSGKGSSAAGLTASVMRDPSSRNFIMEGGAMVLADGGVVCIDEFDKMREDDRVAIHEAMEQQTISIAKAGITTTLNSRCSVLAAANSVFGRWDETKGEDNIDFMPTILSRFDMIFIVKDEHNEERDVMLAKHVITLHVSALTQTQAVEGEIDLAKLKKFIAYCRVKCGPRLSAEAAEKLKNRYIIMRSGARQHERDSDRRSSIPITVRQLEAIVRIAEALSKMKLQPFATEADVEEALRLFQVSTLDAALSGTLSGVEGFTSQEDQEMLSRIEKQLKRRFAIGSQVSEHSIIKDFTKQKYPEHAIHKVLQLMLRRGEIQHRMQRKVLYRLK

[7] = molecular target: DNA replication licensing factor MCM2 (Homo sapiens) (UniProt P49736); assay: Induction of ubiquitination of MCM2 in human H3255 cells incubated for 24 hrs by immunoblot analysis; assay type: cell-based; details: NCI-H3255
Chain of DNA replication licensing factor MCM2 (Homo sapiens) (P49736 whole entry): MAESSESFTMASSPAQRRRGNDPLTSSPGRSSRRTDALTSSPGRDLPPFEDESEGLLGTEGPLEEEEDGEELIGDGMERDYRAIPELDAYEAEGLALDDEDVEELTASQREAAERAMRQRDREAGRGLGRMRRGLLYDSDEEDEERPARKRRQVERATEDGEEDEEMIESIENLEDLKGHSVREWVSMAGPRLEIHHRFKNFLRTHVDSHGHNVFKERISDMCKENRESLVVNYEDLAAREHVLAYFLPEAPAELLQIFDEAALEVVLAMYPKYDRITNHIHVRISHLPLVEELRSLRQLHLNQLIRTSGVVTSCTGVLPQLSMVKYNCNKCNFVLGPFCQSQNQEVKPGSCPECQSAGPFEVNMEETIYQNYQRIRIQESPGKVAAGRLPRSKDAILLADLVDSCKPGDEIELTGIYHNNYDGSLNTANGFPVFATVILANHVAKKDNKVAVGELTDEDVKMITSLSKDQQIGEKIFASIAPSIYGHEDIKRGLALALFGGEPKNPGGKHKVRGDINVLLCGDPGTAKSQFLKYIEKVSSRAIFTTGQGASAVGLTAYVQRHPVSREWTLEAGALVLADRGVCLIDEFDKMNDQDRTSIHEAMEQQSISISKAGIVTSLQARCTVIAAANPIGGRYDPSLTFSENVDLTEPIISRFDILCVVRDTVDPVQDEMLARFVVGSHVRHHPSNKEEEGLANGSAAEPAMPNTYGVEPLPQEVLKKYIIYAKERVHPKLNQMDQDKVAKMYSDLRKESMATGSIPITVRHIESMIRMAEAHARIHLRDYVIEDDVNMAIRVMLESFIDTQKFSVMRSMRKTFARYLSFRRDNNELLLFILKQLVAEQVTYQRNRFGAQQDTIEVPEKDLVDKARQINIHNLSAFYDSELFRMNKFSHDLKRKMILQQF

[8] = system: PC-9; assay: Antiproliferative activity against human PC9 cells assessed as reduction in cell viability incubated for 72 hrs by SRB assay; assay type: functional, cell-based; details: PC-9, 72 h
[9] = molecular target: DNA replication licensing factor MCM2 (Homo sapiens) (UniProt P49736); assay: Induction of ubiquitination of MCM2 in human NCI-H1975 cells incubated for 24 hrs by magnetic beads technique based immunoblot analysis; assay type: cell-based
[10] = molecular target: T3, DNA replication licensing factor MCM6 (Homo sapiens) (UniProt Q14566); assay: Induction of ubiquitination of MCM6 in human NCI-H1975 cells incubated for 24 hrs by immunoblot analysis (reference value: 1); assay type: cell-based
T3 sequence (whole entry): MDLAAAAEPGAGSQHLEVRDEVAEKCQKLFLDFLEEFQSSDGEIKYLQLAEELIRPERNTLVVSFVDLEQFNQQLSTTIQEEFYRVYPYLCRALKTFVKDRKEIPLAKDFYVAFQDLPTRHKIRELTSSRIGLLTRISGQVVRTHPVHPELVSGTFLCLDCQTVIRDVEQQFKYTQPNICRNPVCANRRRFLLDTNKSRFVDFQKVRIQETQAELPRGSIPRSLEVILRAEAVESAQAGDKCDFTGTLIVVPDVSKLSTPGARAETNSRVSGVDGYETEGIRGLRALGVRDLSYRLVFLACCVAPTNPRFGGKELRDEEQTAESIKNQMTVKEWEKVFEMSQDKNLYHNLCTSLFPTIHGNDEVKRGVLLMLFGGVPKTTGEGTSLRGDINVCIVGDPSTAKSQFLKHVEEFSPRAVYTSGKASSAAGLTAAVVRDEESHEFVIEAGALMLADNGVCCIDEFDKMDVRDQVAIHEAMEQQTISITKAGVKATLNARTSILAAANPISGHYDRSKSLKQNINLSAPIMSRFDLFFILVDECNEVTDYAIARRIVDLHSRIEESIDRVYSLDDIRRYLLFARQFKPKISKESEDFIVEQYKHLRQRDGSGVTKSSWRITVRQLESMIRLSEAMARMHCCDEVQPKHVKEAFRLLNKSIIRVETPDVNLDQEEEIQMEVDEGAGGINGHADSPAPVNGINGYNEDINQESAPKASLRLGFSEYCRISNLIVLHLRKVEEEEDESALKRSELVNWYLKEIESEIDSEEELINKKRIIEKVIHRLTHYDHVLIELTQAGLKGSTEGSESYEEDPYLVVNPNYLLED

- Activity [2]: 0.4
- Activity [3]: Active
- Activity [5]: 0.4
- Activity [6]: 0.8
- Activity [7]: Active
- IC50 [8]: < 0.1 µM
- Activity [9]: Active
- Activity [10]: 0.5
Compound: Cc1oc2c(c1C(=O)NCCCn1ccnc1)C(=O)c1ccccc1C2=O
- inhibition in vivo at 1 mg/kg [1]: 44%
- inhibition (INH) [4]: 33%
